Experimental data: patent US6627631B1, “Pharmaceutical composition containing desoxypeganine for the treatment of alcoholism” (priority 1999, dated 2003)

How the values were obtained:
[1] = tested on: ethanol-preferring rats (strain going back to the Finnish AA rat line); assay: Voluntary alcohol consumption of genetic ethanol-preferring rats (free choice of 10% ethanol or water); type: in vivo; conditions: for Alcohol consumption, absolute / Food intake / Alcohol preference (proportion of ethanol solution to total amount of drink) / Total amount of drink: n=6; for Food intake / Total amount of drink: not significant
Description: Influence of deoxypeganine HCl on the voluntary alcohol consumption of genetic ethanol-preferring rats.
The experimental animals were in each case 6 female rats of a strain which goes back to the Finnish AA rat line. The animals of this inbred strain prefer 10% alcohol as a drinking liquid if pure water is additionally offered to them (free choice).
The animals were kept individually in type 3 Makrolon cages at a room temperature of 23° C. and air changes nine times per hour. Dry feed granules (Altromin 1311; meal to which vitamins, minerals, amino acids and trace elements are added; manufacturer: Altromin
Spezialfutterwerke GmbH, Lage), drinking water and ethanol solution (10% v/v) were available to them in unrestricted amounts only during the dark phase from 20.00 hours to 08.00 hours, namely in special vessels which guarantee loss-free feeding and drinking. The amounts consumed were determined gravimetrically; the amounts of drink automatically and continuously with the aid of twelve weighing cells. The respective proportion of ethanol solution to the total amount of drink in % served as a measure of the alcohol preference: 0% means that only water, no ethanol solution, was drunk, 100% means that exclusively ethanol solution was drunk. The average alcohol preference of the untreated experimental animals was 78% or 83%.
Table: Influence of deoxypeganine HCl on the ingestive behavior of female ethanol-prefering rats (n=6). The values determined during the three-day preliminary period in each case are in round brackets.

cholinesterase = conditions: known pharmacological properties; cited from earlier work
[2] = in contrast to neostigmine; cited from earlier work
[3] = summary of the table, 15 and 30 mg/kg orally

| Compound | Alcohol consumption, absolute ([1]; 15 mg/kg orally, preliminary period value 6.47 ± 0.43, p<0.01) | Food intake ([1]; 15 mg/kg orally, preliminary period value 55.2 ± 1.3) | Alcohol preference (proportion of ethanol solution to total amount of drink) ([1]; 15 mg/kg orally, preliminary period value 82.8 ± 6.4, p<0.01) [%] | Total amount of drink ([1]; 15 mg/kg orally, preliminary period value 97.2 ± 2.3) | Alcohol consumption, absolute ([1]; 30 mg/kg orally, preliminary period value 6.30 ± 0.34, p<0.001) | Food intake ([1]; 30 mg/kg orally, preliminary period value 55.7 ± 2.1) | Alcohol preference (proportion of ethanol solution to total amount of drink) ([1]; 30 mg/kg orally, preliminary period value 77.8 ± 4.3, p<0.001) [%] | Total amount of drink ([1]; 30 mg/kg orally, preliminary period value 100.9 ± 1.9) | Cholinesterase inhibition, mode of action (cholinesterase) | Degradation of acetylcholine and of dopamine (cholinesterase) | Blood-brain barrier passage [2] | Desire for alcohol [1, 3] | Food intake and total amount of drink [1, 3] |
| --- | --- | --- | --- | --- | --- | --- | --- | --- | --- | --- | --- | --- | --- |
| Cl.c1ccc2c(c1)CN1CCCC1=N2 [deoxypeganine HCl] | 3.17 ± 0.89 g/kg of BW | 57.7 ± 2.6 ns g/kg of BW | 45.0 ± 12.9 | 89.8 ± 5.6 ns g/kg of BW | 3.71 ± 0.42 g/kg of BW | 44.6 ± 7.6 ns g/kg of BW | 51.7 ± 6.4 | 90.6 ± 6.1 ns g/kg of BW |  |  |  |  |  |
| c1ccc2c(c1)CN1CCCC1=N2 [deoxypeganine, 1,2,3,9-tetrahydropyrrolo[2,1-b]quinazoline] |  |  |  |  |  |  |  |  | reversibly acting cholinesterase inhibitors | inhibits not only the degradation of acetylcholine, but also that of dopamine | crosses the blood-brain barrier | considerably reduced | not significantly changed |
